A word on the Ki: it is a measure of affinity in units of concentration, obtained from inhibition or displacement. Low readings indicate a stronger hold on the target, high ones a looser hold on the target.

The results in this text go back to BindingDB's records for PubMed 8496821 (Fujisawa Pharmaceutical, 1993).

Assay [1] has as its target 5-hydroxytryptamine receptor 2A (Rattus norvegicus, UniProt P14842).
Assay [2] has as its target D(2) dopamine receptor (Rattus norvegicus, UniProt P61169).

Chain of D(2) dopamine receptor (P61169 whole entry): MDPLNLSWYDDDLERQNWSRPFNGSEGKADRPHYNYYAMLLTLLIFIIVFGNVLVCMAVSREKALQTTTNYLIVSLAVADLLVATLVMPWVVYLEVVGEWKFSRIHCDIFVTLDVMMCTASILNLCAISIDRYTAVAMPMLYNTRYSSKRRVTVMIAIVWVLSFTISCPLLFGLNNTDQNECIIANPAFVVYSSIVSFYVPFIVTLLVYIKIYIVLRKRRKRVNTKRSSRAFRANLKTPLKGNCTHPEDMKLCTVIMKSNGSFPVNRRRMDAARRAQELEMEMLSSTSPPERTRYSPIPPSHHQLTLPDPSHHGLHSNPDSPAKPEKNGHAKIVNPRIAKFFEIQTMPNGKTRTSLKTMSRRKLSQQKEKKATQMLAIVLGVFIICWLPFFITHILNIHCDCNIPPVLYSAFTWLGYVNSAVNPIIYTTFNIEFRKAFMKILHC
Chain of 5-hydroxytryptamine receptor 2A (P14842 whole entry): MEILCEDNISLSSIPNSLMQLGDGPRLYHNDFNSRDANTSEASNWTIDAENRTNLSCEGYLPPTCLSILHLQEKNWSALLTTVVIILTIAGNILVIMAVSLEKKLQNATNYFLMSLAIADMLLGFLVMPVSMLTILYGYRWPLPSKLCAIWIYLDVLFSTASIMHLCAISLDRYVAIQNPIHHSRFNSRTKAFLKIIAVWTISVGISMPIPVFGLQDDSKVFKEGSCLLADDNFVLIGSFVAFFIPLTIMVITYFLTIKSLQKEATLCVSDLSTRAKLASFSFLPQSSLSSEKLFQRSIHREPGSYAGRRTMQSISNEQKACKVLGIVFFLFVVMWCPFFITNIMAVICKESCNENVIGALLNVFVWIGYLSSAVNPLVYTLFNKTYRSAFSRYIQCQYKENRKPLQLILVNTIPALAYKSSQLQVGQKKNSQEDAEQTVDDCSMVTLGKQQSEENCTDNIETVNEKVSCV

In the case of `Cc1[nH]cnc1CC1CCc2c(C)c3ccccc3n2C1=O` (configuration not stated) [CAS_125368], the Ki in assay [1] and in assay [2] was 0.01 nM throughout.
